EC50 and IC50 data for 13 compounds are collected here from patent US20190388421A1, “NOVEL COMPOUNDS AND PHARMACEUTICAL COMPOSITIONS THEREOF FOR THE TREATMENT OF FIBROSIS” (Galapagos NV, priority 2016, published 2019).

Molecules are shown by their SMILES.

In assay [1] the target is T1, human GPCR sphingosine 1-phosphate receptor 5 (S1PR5) (Homo sapiens, UniProt Q9H228).
T1 construct: host or cells: CHO
The experiment in a line: S1PR5 selectivity assay (Ca2+ flux, antagonist, S1PR5 specific agonist trigger). It is filed as cell-based. To be noted: S1P5 antagonist EC50, CHO cells overexpressing human S1PR5 and Gq protein. In short, it runs like this: (§1)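 CHO cells stably overexpressing human S1PR1 or S1PR5 with Gq were preincubated with compound 15 min at 37 °C, then stimulated with S1P at EC80 (S1PR1) or an S1PR5-specific agonist (S1PR5). Ca2+ fluorescence was read for 3 min; 10-point 1/3 dilutions from 20 μM final, normalized to vehicle and EC80 trigger, gave EC50.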

For assay [2], the system named is HFL-1 cells. In words: IL8 assay in the presence of Human Serum Albumin. Particulars: HFL1, S1P (5 μM) induced IL-8, HFL-1 cells, with 2% HSA, read-out: HSA IL8 EC50. It is filed as cell-based. As to the method: (§2) S1P is able to induce cytokines such as IL-8 in a process that is S1PR2 dependent (O'Sullivan et al, 2014; Bruennert et al, 2015). This assay is designed to test inhibitory activity of compounds on S1P induced IL-8 on HFL-1 cells, a human fetal lung fibroblast cell line.
To evaluate the influence of plasma protein binding of Sip as well as compound, the S1P induced IL-8 levels were evaluated in presence of 2% Human Serum Albumin (HSA, equivalent to 40% human serum). By adding 2% HSA, which affects both the activity of the compounds as well as the S1P potency, the physiological condition are reproduced and the shift in potency expected under in vivo serum conditions can be measured.
(§3) Human Fetal Lung cells (HFL-1) are seeded in 96 well plates in growth medium (F12K+10% heat inactivated FBS+1% Pen/strep). After overnight incubation at 37° C., 5% CO2 cells are refreshed with starvation medium with HSA (F12K+1% FBS+1% Pen/strep+1.95% HSA). On day three, compounds are added (10 point serial dilution, 30 μM highest concentration, 1/3 dilution, 0.3% DMSO final) and plates are incubated for 1 h at 37° C., 5% CO2. Subsequently S1P at 5 μM final concentration is added and plates are incubated for 16 to 24 h at 37° C., 5% CO2 after which the supernatant was collected. IL-8 levels in the supernatant are determined with the IL-8 ELISA of R&D systems.

The target in assay [3] is T2, human GPCR sphingosine 1-phosphate receptor 2 (S1PR2) (Homo sapiens, UniProt O95136).
T2 construct: host or cells: CHO
In words: S1P2 antagonist assay (Ca2+ flux, S1P at EC80). It is filed as cell-based. Particulars: CHO-S1PR2 cells, highest concentration 20 μM. In short, it runs like this: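 CHO cells stably overexpressing human S1PR2, serum-starved 1 h and loaded with Fluo8 dye, were read for 3 min after compound addition, then stimulated with S1P at EC80 after 15 min at 37 °C. Top concentration 20 μM in a 10-point 1/3 series; Ca2+ fluorescence ratio normalized to vehicle and S1P EC80, giving EC50.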
A general note: Calcium assays in cells follow changes in intracellular calcium, usually with a dye or a luminescent sensor.

Assay [4] concerns the target T3, human GPCR sphingosine 1-phosphate receptor 1 (S1PR1) (Homo sapiens, UniProt P21453).
T3 construct: host or cells: CHO
In words: S1PR1 selectivity assay (Ca2+ flux, antagonist). It is filed as cell-based. Particulars: S1P1 antagonist EC50, CHO cells overexpressing human S1PR1 and Gq protein. The essentials: as §1

For assay [5], the system named is HFL-1 cells. The experiment in a line: IL8 assay (S1P induced IL-8 production). It is filed as cell-based. To be noted: Homo sapiens, HFL1; S1P (1 μM) induced IL-8, HFL-1 cells, without HSA. As to the method: as §2
as §3, with “medium without” for “medium with”, “FBS+1% Pen/strep).” for “FBS+1% Pen/strep+1.95% HSA).”, “concentration, ⅓” for “concentration, 1/3”, “for one hour” for “for 1 h”, “at 1” for “at 5”, “24 hours” for “24 h”

Assay [6] has as its target T4, S1PR2 (Homo sapiens, UniProt O95136).
T4 construct: expressed in transfected cells
The experiment in a line: GTP-γS binding assay ([35S]GTPγS, S1P at EC80, S1PR2 membranes). It is filed as biochemical. Particulars: membranes from stable cell line over expressing S1PR2, read-out: S1PR2 EC. The essentials:
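Compounds tested against S1P at its EC80 on membranes (2.5 μg/well) from a stable S1PR2-overexpressing line, pre-incubated with 1 μM GDP 15 min at 4 °C. Buffer: 20 mM Tris pH 7.5, 10 mM MgCl2, 100 mM NaCl, 0.1% fatty-acid-free BSA, 50 ug/ml saponin. Incubated 4 h at room temperature; [35S]GTPγS binding read by WGA SPA beads.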
Background: Binding of GTPγS marks nucleotide exchange on a G protein.

T1 sequence (Q9H228 whole entry): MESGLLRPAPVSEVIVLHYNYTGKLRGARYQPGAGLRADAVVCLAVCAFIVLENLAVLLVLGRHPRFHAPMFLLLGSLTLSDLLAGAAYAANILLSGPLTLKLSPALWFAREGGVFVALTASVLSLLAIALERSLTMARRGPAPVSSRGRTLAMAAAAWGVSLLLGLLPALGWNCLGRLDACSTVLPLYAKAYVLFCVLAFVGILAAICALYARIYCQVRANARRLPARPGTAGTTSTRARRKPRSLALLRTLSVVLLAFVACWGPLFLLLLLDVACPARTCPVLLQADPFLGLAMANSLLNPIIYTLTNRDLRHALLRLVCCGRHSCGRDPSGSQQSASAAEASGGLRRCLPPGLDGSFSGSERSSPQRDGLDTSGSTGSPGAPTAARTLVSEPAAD
T4 sequence (O95136 whole entry): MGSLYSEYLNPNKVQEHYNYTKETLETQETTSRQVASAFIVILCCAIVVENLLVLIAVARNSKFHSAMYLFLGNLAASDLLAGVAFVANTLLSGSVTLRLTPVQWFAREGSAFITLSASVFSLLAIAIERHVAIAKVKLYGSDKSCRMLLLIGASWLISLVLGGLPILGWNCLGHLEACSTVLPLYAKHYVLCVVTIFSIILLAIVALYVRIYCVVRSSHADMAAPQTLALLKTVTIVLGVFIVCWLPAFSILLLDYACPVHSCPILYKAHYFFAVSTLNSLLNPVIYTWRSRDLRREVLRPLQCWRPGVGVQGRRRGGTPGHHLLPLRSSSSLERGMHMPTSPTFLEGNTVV
T2 sequence (O95136 whole entry): as above
T3 sequence (P21453 whole entry): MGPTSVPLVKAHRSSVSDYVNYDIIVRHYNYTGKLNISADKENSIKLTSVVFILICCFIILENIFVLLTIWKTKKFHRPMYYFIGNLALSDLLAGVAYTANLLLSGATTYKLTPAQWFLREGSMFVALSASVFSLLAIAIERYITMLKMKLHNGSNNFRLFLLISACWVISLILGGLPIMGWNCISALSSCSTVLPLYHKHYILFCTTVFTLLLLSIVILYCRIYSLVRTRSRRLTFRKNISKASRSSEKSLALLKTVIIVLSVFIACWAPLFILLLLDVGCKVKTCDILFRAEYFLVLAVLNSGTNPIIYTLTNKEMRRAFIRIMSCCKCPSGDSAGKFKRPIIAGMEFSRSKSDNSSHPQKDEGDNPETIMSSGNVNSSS

`CCOc1cc(NC(=O)NCc2cc(C)c(N3CC(C)OC(C)C3)nn2)cc(Cl)n1` (stereo not drawn) [Compound 82, 1-(2-Chloro-6-ethoxy-pyridin-4-yl)-3-[6-(2,6-dimethyl-morpholin-4-yl)-5-methyl-pyridazin-3-ylmethyl]-urea]: the EC50 in assay [1] was 341 nM; in assay [3], 6 nM; in assay [4], 6610 nM; in assay [5], 53.5 nM; in assay [6] it was 156 nM. Moreover, the IC50 in assay [2] amounted to 730 nM.
Regarding `CCOc1cc(NC(=O)NCc2cc(C)c(-c3cn(CC4COCCO4)nc3C(F)(F)F)nn2)cc(C(F)(F)F)n1` (stereo not drawn) [Compound 55, 1-[[6-[1-(1,4-dioxan-2-ylmethyl)-3-(trifluoromethyl)pyrazol-4-yl]-5-methyl-pyridazin-3-yl]methyl]-3-[2-ethoxy-6-(trifluoromethyl)-4-pyridyl]urea], the EC50 was 6610 nM in assay [1]; 16.9 nM in assay [3]; at least 19800 nM in assay [4]; 35.8 nM in assay [5]; 338 nM in assay [6]. Besides, the IC50 in assay [2] is 179 nM.
As to `Cc1cc(CNC(=O)Nc2cc(Cl)nc(OCC(F)F)c2)nnc1N1CCC(S(C)(=O)=O)C1` (stereo not drawn) [Compound 91, 1-[2-chloro-6-(2,2-difluoroethoxy)-4-pyridyl]-3-[[5-methyl-6-(3-methylsulfonyl-pyrrolidin-1-yl)pyridazin-3-yl]methyl]urea], the EC50 in assay [1] was at least 19800 nM; in assay [3] it was 529 nM; in assay [4], at least 19800 nM; in assay [5], 1250 nM; in assay [6], 919 nM. Besides, the IC50 in assay [2] was 2840 nM.
For `CCOc1cc(NC(=O)NCc2cc(C)c(-c3cn(C)nc3C(F)(F)F)nn2)cc(C(F)(F)F)n1` [Compound 1, 1-(2-Ethoxy-6-trifluoromethyl-pyridin-4-yl)-3-[5-methyl-6-(1-methyl-3-trifluoromethyl-1H-pyrazol-4-yl)-pyridazin-3-ylmethyl]-urea], the EC50 in assay [1] is 6610 nM; in assay [3] it was 9.5 nM; in assay [4] it was 5970 nM; in assay [5], 2.2 nM; in assay [6], 33.2 nM. Besides, in assay [2], the IC50 was determined as 61.5 nM.
For `CCOc1nc(C(F)(F)F)cc(NC(=O)NCc2cc(C)c(-c3cn(C)nc3C(F)(F)F)nn2)c1C` [Compound 30, 1-[2-ethoxy-3-methyl-6-(trifluoromethyl)-4-pyridyl]-3-[[5-methyl-6-[1-methyl-3-(trifluoromethyl)pyrazol-4-yl]pyridazin-3-yl]methyl]urea], the EC50 is 3280 nM in assay [1]; 6.1 nM in assay [3]; 4480 nM in assay [4]; 1.5 nM in assay [5]; 26.2 nM in assay [6]. Further, in assay [2], the IC50 came to 37.9 nM.
For `Cc1cc(CNC(=O)Nc2cc(Cl)nc(OCC(F)F)c2)nnc1N1CCOC(C(F)(F)F)C1` (stereo not drawn) [Compound 89, 1-[2-chloro-6-(2,2-difluoroethoxy)-4-pyridyl]-3-[[5-methyl-6-[2-(trifluoromethyl)morpholin-4-yl]pyridazin-3-yl]methyl]urea], the EC50 in assay [1] turned out to be 839 nM; in assay [3], 34 nM; in assay [4] it was 3800 nM; in assay [5], 33 nM; in assay [6], 422 nM. For the same compound, the IC50 in assay [2] stood at 1580 nM.
On to `CCOc1cc(N/C(=N/C#N)NCc2cc(C)c(-c3cn(C)nc3C(F)(F)F)nn2)cc(C(F)(F)F)n1` [Compound 76, 2-cyano-1-[2-ethoxy-6-(trifluoromethyl)-4-pyridyl]-3-[[5-methyl-6-[1-methyl-3-(trifluoromethyl)pyrazol-4-yl]pyridazin-3-yl]methyl]guanidine], for which the EC50 in assay [1] worked out at 6610 nM; in assay [3] it was 17 nM; in assay [4], 13200 nM; in assay [5], 8 nM; in assay [6], 62 nM. For the same compound, the IC50 in assay [2] worked out at 111 nM.
Take `CCOc1cc(NC(=O)NCc2cc(C)c(-c3cn(C)nc3C(F)(F)F)nn2)cc(C)n1` [Compound 35, 1-(2-ethoxy-6-methyl-4-pyridyl)-3-[[5-methyl-6-[1-methyl-3-(trifluoromethyl)pyrazol-4-yl]pyridazin-3-yl]methyl]urea]: the EC50 is at least 19800 nM in assay [1]; 74.5 nM in assay [3]; at least 19800 nM in assay [4]; 61.9 nM in assay [5]; 242 nM in assay [6]. In addition, the IC50 in assay [2] was 185 nM.
Turning to `CCOc1nc(C(F)(F)F)cc(NC(=O)NCc2cc(C)c(-c3cn(C)nc3C(F)(F)F)nn2)c1CC` [Compound 46, 1-[2-ethoxy-3-ethyl-6-(trifluoromethyl)-4-pyridyl]-3-[[5-methyl-6-[1-methyl-3-(trifluoromethyl)pyrazol-4-yl]pyridazin-3-yl]methyl]urea], the EC50 in assay [1] stood at 6610 nM; in assay [3], 17.2 nM; in assay [4] it was 6610 nM; in assay [5], 25.6 nM; in assay [6], 97 nM. Besides, the IC50 in assay [2] turned out to be 9950 nM.
As to `CCOc1cc(NC(=O)NCc2cc(C)c(N3CC(C)OC(C)C3)nn2)cc(C(F)(F)F)n1` (stereo not drawn) [Compound 87, 1-[[6-(2,6-dimethyl-morpholin-4-yl)-5-methyl-pyridazin-3-yl]methyl]-3-[2-ethoxy-6-(trifluoromethyl)-4-pyridyl]urea], the EC50 in assay [1] stood at 249 nM; in assay [3], 42 nM; in assay [4] it was 1400 nM; in assay [5], 82 nM; in assay [6], 331 nM. Further, the IC50 in assay [2] is 2170 nM.
Regarding `Cn1cc(-c2nnc(CNC(=O)Nc3cc(Cl)nc(OCC(F)F)c3)cc2N2CC(F)(F)C2)c(C(F)(F)F)n1` [Compound 60, 1-[2-chloro-6-(2,2-difluoroethoxy)-4-pyridyl]-3-[[5-(3,3-difluoroazetidin-1-yl)-6-[1-methyl-3-(trifluoromethyl)pyrazol-4-yl]pyridazin-3-yl]methyl]urea], the EC50 came to 6610 nM in assay [1]; 3280 nM in assay [3]; 2800 nM in assay [4]; 166 nM in assay [5]; 1520 nM in assay [6]. Moreover, the IC50 in assay [2] stood at 4340 nM.
In the case of `Cc1cc(CNC(=O)Nc2cc(OCC3(C(F)(F)F)CC3)nc(C(F)(F)F)c2)nnc1-c1cn(C)nc1C(F)(F)F` [Compound 39, 1-[[5-methyl-6-[1-methyl-3-(trifluoromethyl)pyrazol-4-yl]pyridazin-3-yl]methyl]-3-[2-(trifluoromethyl)-6-[[1-(trifluoromethyl)cyclopropyl]methoxy]-4-pyridyl]urea], the EC50 in assay [1] was 6610 nM; in assay [3] it was 219 nM; in assay [4] it was 6610 nM; in assay [5], 122 nM; in assay [6] it was 1040 nM. In addition, the IC50 in assay [2] was determined as 9950 nM.
Consider `CCOc1nc(C#N)cc(NC(=O)NCc2cc(C)c(-c3cn(C)nc3C(F)(F)F)nn2)c1C` [Compound 57, 1-(6-cyano-2-ethoxy-3-methyl-4-pyridyl)-3-[[5-methyl-6-[1-methyl-3-(trifluoromethyl)pyrazol-4-yl]pyridazin-3-yl]methyl]urea], for which the EC50 in assay [1] worked out at 4620 nM; in assay [3], 7.6 nM; in assay [4] it was 6610 nM; in assay [5], 0.9 nM; in assay [6] it was 24.4 nM. Further, the IC50 in assay [2] turned out to be 17.3 nM.
